#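 Results reflect a 48-hour exposure of cells in 96-well plates to compound at five concentrations. GI50: concentration for 50% inhibition of growth. TGI: concentration producing complete growth inhibition.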
# Experiments:
# Assay in all cases: DTP human tumour cell line panel, 48 h
# HCT-116 colon = test system: HCT-116 colon
# MDA-MB-231 breast = test system: MDA-MB-231 breast
# SR leukemia = test system: SR leukemia
# HCT-15 colon = test system: HCT-15 colon
# 786-0 renal = test system: 786-0 renal
# HOP-62 NSCLC = test system: HOP-62 NSCLC
# UACC-257 melanoma = test system: UACC-257 melanoma
# MDA-MB-435 = test system: MDA-MB-435
# HCC-2998 colon = test system: HCC-2998 colon
SMILES,TGI (HCT-116 colon),TGI (MDA-MB-231 breast),TGI (SR leukemia),TGI (HCT-15 colon),TGI (786-0 renal),TGI (HOP-62 NSCLC),TGI (UACC-257 melanoma),TGI (MDA-MB-435),TGI (HCC-2998 colon),GI50 (MDA-MB-231 breast),GI50 (HOP-62 NSCLC),GI50 (UACC-257 melanoma),GI50 (MDA-MB-435),GI50 (HCC-2998 colon),GI50 (HCT-116 colon),GI50 (SR leukemia),GI50 (HCT-15 colon)
O=C(CSCC(=O)N/N=C/c1cc(I)cc(I)c1O)N/N=C/c1cc(I)cc(I)c1O,33.9 µM,25.1 µM,14 µM,> 100 µM,22.2 µM,33.4 µM,> 100 µM,92.9 µM,38.1 µM,–,–,–,–,–,–,–,–
COc1cc2c(cc1OCCCN1CCN(CCCOc3cc4c(cc3OC)C(=O)N3CCC[C@H]3C=N4)CC1)C=CC(C)(C)O2,–,2.58 µM,–,–,–,2.5 µM,3.52 µM,2.55 µM,2.07 µM,1.31 µM,1.25 µM,1.82 µM,1.24 µM,0.683 µM,–,–,–
C[N+]1(C)CCCC1C(=O)[O-] (stereo not drawn),> 100 µM,–,> 100 µM,> 100 µM,> 100 µM,> 100 µM,> 100 µM,–,> 100 µM,–,–,–,–,–,–,–,–
FC(F)(F)c1ccc(-c2nc(-c3nc4cc(Cl)c(Cl)cc4[nH]3)c3ccccn23)cc1,> 100 µM,> 100 µM,> 100 µM,> 100 µM,–,16.3 µM,> 100 µM,–,> 100 µM,2.49 µM,3.04 µM,> 100 µM,–,> 100 µM,2.92 µM,> 100 µM,30.5 µM
CCCCNC1CCC2(SCCS2)c2[nH]c3ccccc3c21 (stereo not drawn),50.1 µM,> 62.6 µM,39.6 µM,–,80 µM,> 100 µM,15.1 µM,> 49.6 µM,38.8 µM,–,–,–,–,–,–,–,–
COC(=O)C(=O)C(C(=O)Nc1cccc(C)c1C)C1Sc2ccccc2NC1=O (stereo not drawn),> 25 µM,–,> 25 µM,> 25 µM,–,> 25 µM,> 25 µM,–,> 25 µM,–,–,–,–,–,–,–,–
c1csc(-c2ccc(-c3ccc(-c4ccc(-c5cccs5)s4)s3)s2)c1,> 100 µM,–,> 100 µM,> 100 µM,> 100 µM,> 100 µM,> 100 µM,> 100 µM,> 100 µM,–,–,–,–,–,–,–,–
C=C1C(=O)OC2/C=C(\C)C(OC(C)=O)C3OC3C(C)(O)CC(OC(=O)/C(C)=C/C)C12 (stereo not drawn),5.86 µM,–,23.2 µM,30.8 µM,16.4 µM,37.4 µM,28.8 µM,–,21.3 µM,–,–,–,–,–,–,–,–
O=S(=O)(Oc1ccc2oc3ccccc3c2c1-c1c(OS(=O)(=O)C(F)(F)F)ccc2oc3ccccc3c12)C(F)(F)F,> 100 µM,> 100 µM,> 100 µM,> 100 µM,> 100 µM,> 100 µM,> 100 µM,> 100 µM,> 100 µM,–,–,–,–,–,–,–,–
